Common to all, as to assay type: biochemical
The target in one test is T1, activated JNK3 (Homo sapiens, UniProt P53779).
T1 construct: One such construct encodes amino acid residues Ser40-Glu402 of JNK3α1 and is preceded by Met and Gly residues; Met-Gly (initiator methionine and added glycine) (N); made in house; host or cells: E. coli BL21 (DE3)
Nature of the test: JNK inhibition assay (spectrophotometric coupled-enzyme assay). The note with it: 10 nM activated JNK3, 10 μM ATP; read-out: Activity in the JNK3 Inhibition Assay (Ki rating A-C). The source says:
A BLAST search of the EST database using the published JNK3α1 cDNA as a query identified an EST clone (#632588) that contained the entire coding sequence for human JNK3α1. Polymerase chain reactions (PCR) using pfu polymerase (Strategene) were used to introduce restriction sites into the cDNA for cloning into the pET-15B expression vector at the NcoI and BamHI sites. The protein was expressed in E. coli. […] This truncation corresponds to Ser 2 of JNK1 and JNK2 proteins, and is preceded by a methionine (initiation) and a glycine residue. The glycine residue was added in order to introduce an NcoI site for cloning into the expression vector. In addition, systematic C-terminal truncations were performed by PCR to identify a construct that give rise to diffraction-quality crystals.
5 mg of JNK3 was diluted to 0.5 mg/ml in 50 mM HEPES buffer, pH 7.5, containing 100 mM NaCl, 5 mM DTT, 20 mM MgCl2 and 1 mM ATP. GST-MKK7(DD) was added at a molar ratio of 1:2.5 GST-MKK7:JNK3. After incubation for 30 minutes at 25° C., the reaction mixture was concentrated 5-fold by ultrafiltration in a Centriprep-30 (Amicon, Beverly, Mass.), diluted to 10 ml and an additional 1 mM ATP added. This procedure was repeated three times to remove ADP and replenish ATP. The final addition of ATP was 5 mM and the mixture incubated overnight at 4° C.
The activated JNK3/GST-MKK7(DD) reaction mixture was exchanged into 50 mM HEPES buffer, pH 7.5, containing 5 mM DTT and 5% glycerol (w/v) by dialysis or ultrafiltration. The reaction mixture was adjusted to 1.1 M potassium phosphate, pH 7.5, and purified by hydrophobic interaction chromatography (at 25° C.) using a Rainin Hydropore column. […] Activated JNK3 (i.e. doubly phosphorylated JNK3) was stored at −70° C. at 0.25-1 mg/ml.
Compounds were assayed for the inhibition of JNK3 by a spectrophotometric coupled-enzyme assay. In this assay, a fixed concentration of activated JNK3 (10 nM) was incubated with various concentrations of a potential inhibitor dissolved in DMSO for 10 minutes at 30° C. in a buffer containing 0.1 M HEPES buffer, pH 7.5, containing 10 mM MgCl2, 2.5 mM phosphoenolpyruvate, 200 μM NADH, 150 μg/mL pyruvate kinase, 50 μg/mL lactate dehydrogenase, and 200 μM EGF receptor peptide. […] The reaction was initiated by the addition of 10 μM ATP and the assay plate is inserted into the spectrophotometer's assay plate compartment that was maintained at 30° C. The decrease of absorbance at 340 nm was monitored as a function of time. The rate data as a function of inhibitor concentration was fitted to competitive inhibition kinetic model to determine the Ki.

Test [1] addresses T2, Lck kinase purified from bovine thymus (Bos taurus, UniProt Q3ZCM0).
T2 construct: Lck kinase purified from bovine thymus; purchased Upstate Biotechnology 14-106; host or cells: bovine thymus (tissue-purified)
Nature of the test: Lck inhibition assay (33P incorporation into poly Glu-Tyr). As to conditions: for Ki: 10 μM ATP, read-out: Activity in the Lck Inhibition Assay (Ki rating A-C). As for the experimental part:
The compounds were assayed as inhibitors of Lck kinase purified from bovine thymus (from Upstate Biotechnology, cat. no. 14-106). Lck kinase activity was monitored by following the incorporation of ^33P from ATP into the tyrosine of a random poly Glu-Tyr polymer substrate of composition, Glu:Tyr=4:1 (Sigma, cat. no. P-0275). The following were the final concentrations of the assay components: 0.05 M HEPES, pH 7.6, 10 mM MgCl2, 2 mM DTT, 0.25 mg/ml BSA, 10 μM ATP (1-2 μCi ^33P-ATP per reaction), 5 mg/ml poly Glu-Tyr, and 1-2 units of lck kinase. In a typical assay, all the reaction components with the exception of ATP were pre-mixed and aliquoted into assay plate wells. […] The assay plate was incubated at 30° C. for 10 min before initiating the reaction with ^33P-ATP. After 20 min of reaction, the reactions were quenched with 150 μl of 10% trichloroacetic acid (TCA) containing 20 mM Na3PO4. The quenched samples were then transferred to a 96-well filter plate (Whatman, UNI-Filter GF/F Glass Fiber Filter, cat no. 7700-3310) installed on a filter plate vacuum manifold. Filter plates were washed four times with 10% TCA containing 20 mM Na3PO4 and then 4 times with methanol. 200 μl of scintillation fluid was then added to each well. The plates were sealed and the amount of radioactivity associated with the filters was quantified on a TopCount scintillation counter.

A further test deals with CDK-2/Cyclin A (Homo sapiens, UniProt P24941). Nature of the test: CDK2 inhibition assay (standard coupled enzyme assay). The note with it: 25 nM CDK-2/Cyclin A; read-out: CDK2 Inhibitory Activity (Ki rating A-C). As for the experimental part: Compounds were screened in the following manner for their ability to inhibit CDK2 using a standard coupled enzyme assay (Fox et al (1998) Protein Sci 7, 2249).
To an assay stock buffer solution containing 0.1M HEPES 7.5, 10 mM MgCl2, 1 mM DTT, 25 mM NaCl, 2.5 mM phosphoenolpyruvate, […], […], […], […], and 100 μM peptide ([…], American Peptide, Sunnyvale, Calif.) was added a DMSO solution of a compound of the present invention to a final concentration of 30 μM. The resulting mixture was incubated at 30° C. for 10 minutes.
The reaction was initiated by the addition of 10 μL of CDK-2/Cyclin A stock solution to give a final concentration of 25 nM in the assay. The rates of reaction were obtained by monitoring absorbance at 340 nm over a 5-minute read time at 30° C. using a BioRad Ultramark plate reader (Hercules, Calif.). The Ki values were determined from the rate data as a function of inhibitor concentration.

T1 sequence (P53779 40-402): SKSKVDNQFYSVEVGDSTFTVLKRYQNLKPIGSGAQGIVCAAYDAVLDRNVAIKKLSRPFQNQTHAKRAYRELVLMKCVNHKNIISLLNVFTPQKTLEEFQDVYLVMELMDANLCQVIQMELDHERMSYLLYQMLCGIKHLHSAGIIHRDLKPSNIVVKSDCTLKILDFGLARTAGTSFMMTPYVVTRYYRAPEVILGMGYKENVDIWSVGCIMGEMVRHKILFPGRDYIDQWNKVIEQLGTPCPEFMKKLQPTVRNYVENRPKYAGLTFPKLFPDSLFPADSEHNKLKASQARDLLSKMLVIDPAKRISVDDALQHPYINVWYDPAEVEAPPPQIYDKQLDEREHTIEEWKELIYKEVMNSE
T2 sequence (Q3ZCM0 1-509): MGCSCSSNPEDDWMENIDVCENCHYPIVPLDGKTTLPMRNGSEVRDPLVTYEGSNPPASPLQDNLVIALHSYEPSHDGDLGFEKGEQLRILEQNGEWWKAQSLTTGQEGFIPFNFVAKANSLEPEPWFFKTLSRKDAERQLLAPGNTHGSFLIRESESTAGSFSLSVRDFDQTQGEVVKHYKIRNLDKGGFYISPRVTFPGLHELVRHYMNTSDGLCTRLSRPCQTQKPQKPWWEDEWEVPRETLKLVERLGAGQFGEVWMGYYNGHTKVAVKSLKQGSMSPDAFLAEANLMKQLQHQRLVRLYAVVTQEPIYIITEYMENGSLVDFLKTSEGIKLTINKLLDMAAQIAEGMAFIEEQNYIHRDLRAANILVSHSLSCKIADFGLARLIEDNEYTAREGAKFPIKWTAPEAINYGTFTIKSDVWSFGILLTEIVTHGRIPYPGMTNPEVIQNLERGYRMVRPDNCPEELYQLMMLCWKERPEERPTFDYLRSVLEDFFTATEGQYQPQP

What is called Ki is the equilibrium dissociation constant of an inhibitor or competing ligand from its target. Turning to `COc1cc(-c2ccnc(Nc3nccs3)n2)cc(OC)c1OC` [Compound I-85], the Ki (on activated JNK3; in test [1]) was 100 to 1000 nM each time.

For the molecule `COc1cc(-c2ccnc(Nc3cccc(N(C)C)c3)n2)cc(OC)c1OC` [Compound I-89], the Ki (on activated JNK3; in test [1]) was 100 to 1000 nM in each case.

Regarding `COc1cc(-c2ccnc(Nc3cccc(S(N)(=O)=O)c3)n2)cc(OC)c1OC` [Compound I-94], the Ki at activated JNK3 was below 100 nM; in test [1], 100 to 1000 nM.

For `COc1ccc(-c2ccnc(Nc3cccc(F)c3)n2)c(OC)c1OC` [II-5], the Ki in test [1] was above 1000 nM.

Turning to `COc1cccc(Nc2nccc(-c3ccc(OC)c(OC)c3OC)n2)c1` [II-6], the Ki in test [1] was 100 to 1000 nM.

Regarding `COc1ccc(-c2ccnc(Nc3cccc(C)c3)n2)c(OC)c1OC` [II-10], in test [1], the Ki was above 1000 nM.

As to `COc1ccc(Nc2nccc(-c3ccc(OC)c(OC)c3OC)n2)cc1` [II-12], in test [1], the Ki lay in the range of 100 to 1000 nM.

As for `COc1ccc(-c2ccnc(Nc3cc(C)cc(C)c3)n2)c(OC)c1OC` [II-14, (3,5-Dimethylphenyl)-[4-(2,3,4-trimethoxyphenyl)-pyrimid-2-yl]-amine], the “Activity in the Lck Inhibition Assay (percent inhibition rating D-F)” value in test [1] (at a 5 μM inhibitor concentration) is “F (percent inhibition of between 67% and 100%)”.

As to `COc1ccc(-c2ccnc(Nc3cccc(Oc4ccccc4)c3)n2)c2c1OCCO2` [II-15], in test [1], the Ki lay within 100 to 1000 nM.

Regarding `COc1ccc(-c2ccnc(Nc3cccc(OCc4ccccc4)c3)n2)c2c1OCCO2` [II-16], the Ki in test [1] lay in the range of 100 to 1000 nM.

On to `COc1c(-c2ccnc(Nc3cccc(Oc4ccccc4)c3)n2)ccc2c1OCCO2` [II-17, [4-(5-Methoxy-2,3-dihydro-benzo[1,4]dioxin-6-yl)-pyrimidin-2-yl]-(3-phenoxyphenyl)-amine], for which, in test [1], the Ki was above 1000 nM.

Consider `COc1ccc(-c2ccnc(Nc3cccc(Oc4ccccc4)c3)n2)c(OC)c1OCCN1CCOCC1` [II-19], for which the Ki in test [1] was above 1000 nM.

Turning to `COc1ccc(-c2ccnc(Nc3cccc(OCc4ccccc4)c3)n2)c(OC)c1OCCN1CCOCC1` [II-20], the Ki in test [1] was above 1000 nM.

For the molecule `COc1ccc(-c2ccnc(Nc3cccc(Oc4ccccc4)c3)n2)c(OCCN2CCOCC2)c1OC` [II-21], the Ki in test [1] is above 1000 nM.

As for `COc1ccc(-c2ccnc(Nc3cccc(OCc4ccccc4)c3)n2)c(OCCN2CCOCC2)c1OC` [II-22], the Ki in test [1] was above 1000 nM.

Turning to `COc1ccc(-c2ccnc(Nc3cccc(Oc4ccncc4)c3)n2)c(OC)c1OC` [II-23], in test [1], the Ki is below 100 nM.

As for `COc1ccc(-c2ccnc(Nc3cccc(Cc4ccccc4)c3)n2)c(OC)c1OC` [II-27], in test [1], the Ki fell in the range of 100 to 1000 nM.

Turning to `COc1ccc(Oc2ccccc2)cc1Nc1nccc(-c2ccc(OC)c(OC)c2OC)n1` [II-31], in test [1], the Ki was below 100 nM.

As for `COc1cc(Oc2ccccc2)nc(Nc2nccc(-c3ccc(OC)c(OC)c3OC)n2)n1` [II-34], the Ki in test [1] was above 1000 nM.

`COc1ccc(-c2ccnc(Nc3cccc(-c4ccccc4F)c3)n2)c(OC)c1OC` [II-35]: the Ki in test [1] was below 100 nM.

Turning to `COc1ccc(-c2ccnc(Nc3cccc(-c4cccc(F)c4)c3)n2)c(OC)c1OC` [II-36], the Ki in test [1] is below 100 nM.

`COc1ccc(-c2ccnc(Nc3cccc(-c4ccc(F)cc4)c3)n2)c(OC)c1OC` [II-37]: the Ki in test [1] is below 100 nM.

For `COc1ccc(-c2ccnc(Nc3cccc(-c4ccccc4Cl)c3)n2)c(OC)c1OC` [II-38], the Ki in test [1] lay within 100 to 1000 nM.

For the molecule `COc1ccc(-c2ccnc(Nc3cccc(-c4cccc(Cl)c4)c3)n2)c(OC)c1OC` [II-39], in test [1], the Ki is below 100 nM.

Consider `COc1ccc(-c2ccnc(Nc3cccc(-c4ccc(Cl)cc4)c3)n2)c(OC)c1OC` [II-40], for which, in test [1], the Ki was below 100 nM.

On to `COc1ccccc1-c1cccc(Nc2nccc(-c3ccc(OC)c(OC)c3OC)n2)c1` [II-41], for which the Ki in test [1] lay in the range of 100 to 1000 nM.

`COc1cccc(-c2cccc(Nc3nccc(-c4ccc(OC)c(OC)c4OC)n3)c2)c1` [II-42]: the Ki in test [1] lay in the range of 100 to 1000 nM.

Take `COc1ccc(-c2cccc(Nc3nccc(-c4ccc(OC)c(OC)c4OC)n3)c2)cc1` [II-43]: the Ki in test [1] was below 100 nM.

As to `COc1ccc(-c2ccnc(Nc3cccc(-c4ccc(CO)cc4)c3)n2)c(OC)c1OC` [II-49], the Ki was below 100 nM in test [1] and above 5000 nM on CDK-2/Cyclin A.

For the molecule `COc1ccc(-c2ccnc(Nc3cccc(-c4ccc(F)c(Cl)c4)c3)n2)c(OC)c1OC` [II-50], the Ki in test [1] was 100 to 1000 nM; on CDK-2/Cyclin A, above 5000 nM.

On to `COc1ccc(-c2ccnc(Nc3cccc(-c4cccc(N)c4)c3)n2)c(OC)c1OC` [II-51], for which the values for the Ki (in test [1]; on CDK-2/Cyclin A) were 100 to 1000 nM and above 5000 nM, respectively.

On to `COc1ccc(-c2ccnc(Nc3cccc(-c4ccc(N(C)C)cc4)c3)n2)c(OC)c1OC` [II-52], for which the inhibition constant Ki in test [1] was 100 to 1000 nM; on CDK-2/Cyclin A, above 5000 nM.

For `COc1ccc(-c2ccnc(Nc3cccc(-c4cccnc4)c3)n2)c(OC)c1OC` [II-53], the Ki is 100 to 1000 nM in test [1] and above 5000 nM on CDK-2/Cyclin A.

Take `COc1ccc(-c2ccnc(Nc3cc(-c4cccc(Cl)c4)ccc3C)n2)c(OC)c1OC` [II-54]: the Ki in test [1] was 100 to 1000 nM; on CDK-2/Cyclin A it was above 5000 nM.

Take `COc1ccc(-c2ccnc(Nc3cc(-c4ccc(N(C)C)cc4)ccc3C)n2)c(OC)c1OC` [II-55]: the Ki is below 100 nM in test [1] and above 5000 nM on CDK-2/Cyclin A.

For the molecule `COc1ccc(-c2ccnc(Nc3cc(-c4cccc(C(F)(F)F)c4)ccc3C)n2)c(OC)c1OC` [II-57], the Ki in test [1] is above 1000 nM; at CDK-2/Cyclin A, above 5000 nM.

Consider `COc1ccc(-c2ccnc(Nc3cc(-c4cc(C)ccc4C)ccc3C)n2)c(OC)c1OC` [II-58], for which the values for the Ki (in test [1]; at CDK-2/Cyclin A) were above 1000 nM and above 5000 nM, respectively.

For the molecule `CCOc1cccc(-c2ccc(C)c(Nc3nccc(-c4ccc(OC)c(OC)c4OC)n3)c2)c1` [II-59], the Ki in test [1] was 100 to 1000 nM; on CDK-2/Cyclin A it was above 5000 nM.

As for `COc1ccc(-c2ccnc(Nc3cc(-c4cccnc4)ccc3C)n2)c(OC)c1OC` [II-60], the Ki was 100 to 1000 nM in test [1] and above 5000 nM at CDK-2/Cyclin A.

`COc1ccc(-c2ccnc(Nc3cc(CO)ccc3C)n2)c(OC)c1OC` [II-61]: the Ki is 100 to 1000 nM in test [1] and above 5000 nM on CDK-2/Cyclin A.

The record behind these values is patent US6949544B2, “Inhibitors of c-Jun N-terminal kinases (JNK) and other protein kinases” (Vertex Pharmaceuticals Incorporated, priority 2001, dated 2005).
